Data published in patent publication US9725460B2, “Oridonin analogs, compositions, and methods related thereto” (THE BOARD OF REGENTS OF THE UNIVERSITY OF TEXAS SYSTEM, priority 2013, dated 2017).
≈ marks a conversion by molar mass, not a printed value. Where two headings read alike, the source gives them in different places.

Key:
MDA-MB-231 = experiment: MTT cancer cell proliferation assay, MDA-MB-231; type: cell-based, human; conditions: Homo sapiens
Summary of the method: (§1)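 Cells seeded at 1×10^4/well and exposed 48 h to 0.01-100 μM compound (0.01, 0.1, 1, 5, 10, 100 μM) or DMSO. MTT added for a further 4 h, formazan dissolved in DMSO and OD read at 550 nm; quadruplicate wells per concentration. MCF-7 is ER-positive; MDA-MB-231 ER-negative, triple-negative.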

[1] = test system: xenograft tumors (breast cancer MDA-MB-231); experiment: MDA-MB-231 xenograft tumor growth in mice; type: in vivo; conditions: 5.0 mg/kg ip; triple-negative MDA-MB-231 xenograft; p<0.0001
From the text: (§2) FIG. 14. […] Values are mean±SE of three independent experiments.
(§3) In pilot in vivo studies, this compound was further evaluated for its anticancer activity in suppression of tumor growth in the triple-negative breast cancer MDA-MB-231 xenograft model.

AsPC1 = experiment: Cancer cell proliferation assay, AsPC1; type: cell-based; conditions: Homo sapiens, ASPC1
Description: (§4) In Vitro Determination of Effects of Synthesized Diterpenoids on Cancer Cell Proliferation. […] Then MTT solution was removed, and 150 μL of DMSO was added to each well. Absorbance of all wells was determined by measuring OD at 550 nm after a 10 min incubation on a 96-well GlowMaxate absorbance reader (Promega, Madison, Wis.). Each individual compound was tested in quadruplicate wells for each concentration.

DU145 = experiment: Cancer cell proliferation assay, DU145; type: cell-based; conditions: Homo sapiens, DU-145
[2] = Body weight and tolerability in xenograft mice; conditions: 5.0 mg/kg ip
From the text: as §2, §3

Panc-1 = experiment: Cancer cell proliferation assay, Panc-1; type: cell-based; conditions: Homo sapiens, PANC-1
Description: as §4

[3] = test system: breast, pancreatic, and prostate cancer cell lines; experiment: Anti-proliferation effects against cancer cell lines; type: cell-based, human; conditions: summary of Tables 1 and 2
Description: (§5) In Vitro Determination of Effects of Synthesized Diterpenoids on Cancer Cell Proliferation. Breast cancer cell lines MCF-7, MDA-MB-231, […] and MCF/ADR were seeded in 96-well plates at a density of 1×10^4 cells/well and treated with DMSO and 0.01, 0.1, 1, 5, 10, and 100 μM of individual compound for 48 h, and then 20 μL of 3-(4,5-dimethylthiazol-2-yl)-2,5-diphenyltetrazolium bromide (MTT) (5 mg/mL in PBS) was added to each well and further incubated for another 4 h. Then MTT solution was removed, and 150 μL of DMSO was added to each well. Absorbance of all wells was determined by measuring OD at 550 nm after a 10 min incubation on a 96-well GlowMaxate absorbance reader (Promega, Madison, Wis.). Each individual compound was tested in quadruplicate wells for each concentration.

MCF-7 = experiment: MTT cancer cell proliferation assay, MCF-7; type: cell-based, human; conditions: Homo sapiens
Summary of the method: as §1

MCF-7/ADR [4] = experiment: MTT growth inhibition, drug-resistant MCF-7/ADR; type: cell-based; conditions: Homo sapiens, NCI/ADR-RES, 24 h, Table 1d; drug-resistant breast cancer cells; mean ± SE of three experiments
HMEC cells = experiment: Toxicity in HMEC cells; type: cell-based
MDA-MB-231 cells = experiment: Colony formation in MDA-MB-231 cells; type: cell-based
MCF-7/ADR [5] = experiment: MTT growth inhibition, drug-resistant MCF-7/ADR; type: cell-based, human; conditions: Homo sapiens, NCI/ADR-RES, 48 h, Table 3; adriamycin-resistant; MTT 48 h; mean ± SE of three experiments
Description: as §5
(§6) The growth inhibitory effects of the newly generated pyran-fused diterpenoids were evaluated in four breast cancer cell lines MCF-7 (ER-positive), MDAMB-231 (ER-negative and triple-negative), MDA-MB-468 (ER-negative and triple-negative) as well as MCF-7/ADR (adriamycin-resistant) using MTT assays as described in the Experimental Section. The capability of these new molecules to inhibit the growth of cancer cells was summarized in Table 3 and compared with that of adriamycin and 1 spontaneously.

MDA-MB-468 = experiment: MTT cancer cell proliferation assay, MDA-MB-468; type: cell-based, human; conditions: Homo sapiens, MDA-MB-468, 48 h, Table 3; pyran-fused diterpenoids; MTT 48 h; mean ± SE of three experiments
Description: as §5, §6

[6] = test system: acute myeloid leukemic cells; conditions: Zhou et al., Blood 2007; read-out: IC50, induction of mitochondrial apoptosis; cited from earlier work
Aqueous solubility = type: physicochemical; conditions: water; compound as such; read-out: Aqueous solubility
leukemia = conditions: 15 mg/kg; Zhou et al., Blood 2007; cited from earlier work
[7] = MDA-MB-231, Table 1a, breast cancer, read-out: IC50 (μM) MDA-MB-231
[8] = MDA-MB-231, Table 2b, mean of at least three experiments, read-out: Effect on proliferation MDA-MB-231 (ER negative) (IC50)
[9] = Table 1a, pancreatic cancer, read-out: IC50 (μM) AsPC1
[10] = Table 2b, mean of at least three experiments, read-out: Effect on proliferation AsPC1 (IC50)
[11] = Table 1a, prostate cancer, read-out: IC50 (μM) DU145
[12] = Table 2b, mean of at least three experiments, read-out: Effect on proliferation DU145 (IC50)
[13] = Table 1a, pancreatic cancer, read-out: IC50 (μM) Panc-1
[14] = Table 2b, mean of at least three experiments, read-out: Effect on proliferation Panc-1 (IC50)
[15] = MCF7, Table 1a, breast cancer, read-out: IC50 (μM) MCF-7
[16] = MCF7, Table 2b, mean of at least three experiments, read-out: Effect on proliferation MCF-7 (ER positive) (IC50)
[17] = MDA-MB-231, Table 1c, dienone analogues, mean ± SE of three experiments, read-out: Antiproliferative effect MDA-MB-231 (IC50)
[18] = MDA-MB-231, Table 2a, A-ring modified analogues, read-out: IC50 (μM) MDA-MB-231
[19] = Table 2a, A-ring modified analogues, read-out: IC50 (μM) AsPC1
[20] = Table 2a, A-ring modified analogues, read-out: IC50 (μM) Panc-1
[21] = MCF7, Table 1c, dienone analogues, mean ± SE of three experiments, read-out: Antiproliferative effect MCF-7 (IC50)
[22] = MCF7, Table 2a, A-ring modified analogues, read-out: IC50 (μM) MCF-7

Structure (SMILES)	IC50 (MDA-MB-231; [7]) [µM]	IC50 (MDA-MB-231; [8]) [µM]	Inhibition of xenograft tumor growth compared to oridonin at the same dose [1]	IC50 (AsPC1; [9]) [µM]	IC50 (AsPC1; [10]) [µM]	IC50 (DU145; [11]) [µM]	IC50 (DU145; [12]) [µM]	Loss of body weight [2]	Tolerability during the experiments [2]	IC50 (Panc-1; [13]) [µM]	IC50 (Panc-1; [14]) [µM]	IC50 values, anti-proliferation effects against cancer cell lines [3]	IC50 (MCF-7; [15]) [µM]	IC50 (MDA-MB-231; [17]) [µM]	IC50 (MDA-MB-231; [18]) [µM]	IC50 (AsPC1; [19]) [µM]	IC50 (MCF-7/ADR [4]) [µM]	IC50 (Panc-1; [20]) [µM]	IC50 (MCF-7; [21]) [µM]	IC50 (MCF-7; [22]) [µM]	further results
C=CCNc1nc2c(s1)CC(C)(C)[C@H]1[C@H](O)[C@@]3(O)OC[C@@]21[C@@H]1CC[C@H]2C(=C)C(=O)[C@]13[C@@H]2O [CYD-6-18, (5aR,6S,7S,7aR,10S,12aS,12bR,15R)-2-(allylamino)-6,7,15-trihydroxy-5,5-dimethyl-9-methylene-5,5a,6,7,10,11,12,12a-octahydro-4H-7,12b-(epoxymethano)-7a,10-methanocyclohepta[7,8]naphtho[1,2-d]thiazol-8(9H)-one]	0.18	0.2	much better effect in inhibiting tumor growth	1.05	1.1	1.18	1.2	no significant loss of body weight	tolerated	1.1	1.1	low micromolar to nanomolar	0.18	–	–	–	–	–	–	–	IC50 (MCF-7; [16]): 0.2 µM
C=C1C(=O)[C@@]23[C@@H]4OC(C)(C)OC25OC[C@]2(C(=O)C=CC(C)(C)[C@H]2[C@@H]5O)[C@@H]3CC[C@@H]14 [CYD-6-25, (3S,3aR,3a^1R,6aR,7S,7aR,11aS,11bS)-7-hydroxy-5,5,8,8-tetramethyl-15-methylene-3,3a,7,7a,8,11b-hexahydro-1H-6a,11a-(epoxymethano)-3,3a^1-ethanophenanthro[1,10-de][1,3]dioxine-11,14(2H)-dione]	–	–	–	–	–	–	–	–	–	–	–	–	–	3.49 ± 1.21	5.6	8.82	5.03 ± 1.91	7.93	0.56 ± 0.31	1.1	–
C=C1C(=O)[C@]23[C@H](O)[C@H]1CC[C@H]2[C@@]12CO[C@]3(O)[C@@H](O)[C@@H]1C(C)(C)C=CC2=O [CYD-6-58, (4aR,5S,6S,6aR,9S,11aS,11bS,14R)-5,6,14-trihydroxy-4,4-dimethyl-8-methylene-4,4a,5,6,9,10,11,11a-octahydro-1H-6,11b-(epoxymethano)-6a,9-methanocyclohepta[a]naphthalene-1,7(8H)-dione]	–	–	–	–	–	–	–	–	–	–	–	–	–	2.23 ± 0.68	3.56	2.99	5.82 ± 2.12	> 10	1.31 ± 0.25	0.95	–
C=C1C(=O)[C@@]23[C@@H]4OC(C)(C)OC25OC[C@]2(C=CC(=O)C(C)(C)[C@H]2[C@@H]5O)[C@@H]3CC[C@@H]14 [CYD-6-86, (3S,3aR,3a^1R,6aR,7S,7aS,11aR,11bS)-7-hydroxy-5,5,8,8-tetramethyl-15-methylene-3,3a,7,7a,8,11b-hexahydro-1H-6a,11a-(epoxymethano)-3,3a^1-ethanophenanthro[1,10-de][1,3]dioxine-9,14(2H)-dione]	–	–	much more efficacious in suppressing xenograft tumor growth	–	–	–	–	no significant loss of body weight	well tolerated	–	–	low micromolar to nanomolar	–	5.6 ± 1.06	4.39	0.81	6.02 ± 1.28	6.49	0.98 ± 0.19	0.86	Toxicity in HMEC cells (HMEC cells): lower toxicity; Antiproliferative and colony formation inhibitory effects in MDA-MB-231 cells (MDA-MB-231 cells): potent antiproliferative and colony formation inhibitory effects
C=C1C(=O)[C@@]23[C@@H]4OC(C)(C)OC25OC[C@]2(C(=O)C(C=O)=CC(C)(C)[C@H]2[C@@H]5O)[C@@H]3CC[C@@H]14 [CYD-6-92, (3S,3aR,3a^1R,6aR,7S,7aR,11aS,11bS)-7-hydroxy-5,5,8,8-tetramethyl-15-methylene-11,14-dioxo-2,3,3a,7,7a,8,11,11b-octahydro-1H-6a,11a-(epoxymethano)-3,3a^1-ethanophenanthro[1,10-de][1,3]dioxine-10-carbaldehyde]	–	–	–	–	–	–	–	–	–	–	–	low micromolar to nanomolar	–	3.46 ± 1.33	6.09	3.57	6.55 ± 0.96	5.35	1.28 ± 0.47	1.46	–
C=C1C(=O)[C@]23[C@H](O)[C@H]1CC[C@H]2[C@@]12COC3(O)[C@@H](O)[C@@H]1C(C)(C)CC[C@@H]2O [Oridonin]	29.4	29.4	–	34.5	19.3	14.2	14.2	–	–	13.4	15.6	–	6.64	28 ± 1.4	29.4	–	> 30	–	4.36 ± 1.41	6.64	IC50 (MCF-7/ADR [5]): 34.8 ± 2.54 µM; IC50 (MDA-MB-231; MDA-MB-231, 48 h, Table 3, pyran-fused diterpenoids, MTT 48 h, mean ± SE of three experiments, read-out: IC50 (μM) MDA-MB-231): 28 ± 1.4 µM; IC50 (MDA-MB-231; MDA-MB-231, Table 1b, triazole substituted analogues, mean of three experiments, read-out: IC50 (μM) MDA-MB-231): 29.4 µM; IC50 (MDA-MB-468): 5.33 ± 1.36 µM; IC50 [6]: 2 µM; solubility (Aqueous solubility): 1290 µg/mL (≈ 3.54 mM); Anti-leukemia activities in murine models (leukemia): substantial anti-leukemia activities with a low side-effect; IC50 (MCF-7; MCF7, 48 h, Table 3, pyran-fused diterpenoids, MTT 48 h, mean ± SE of three experiments, read-out: IC50 (μM) MCF-7): 4.36 ± 1.41 µM; IC50 (MCF-7; MCF7, Table 1b, triazole substituted analogues, mean of three experiments, read-out: IC50 (μM) MCF-7): 6.6 µM; IC50 (MCF-7; [16]): 6.6 µM
